According to US9757439B2, “Peptide vaccine comprising mutant RAS peptide and chemotherapeutic agent” (priority 2014, dated 2017):

What was measured:
[1] = system: DC vaccine-induced T-cell proliferation; settings: concomitant administration of gemcitabine and the DC vaccine; cited from earlier work
[2] = system: resectable pancreatic cancer; settings: postoperative gemcitabine versus no gemcitabine; cited from earlier work
[3] = system: resected pancreatic cancer; settings: in vivo

Nc1ccn([C@@H]2O[C@H](CO)[C@@H](O)C2(F)F)c(=O)n1 [gemcitabine, 4-amino-1-(2-deoxy-2,2-difluoro-β-D-erythro-pentofuranosyl)pyrimidin-2(1H)-on]
vaccine-induced immune response [1]: significantly impaired | development of recurrent disease after complete resection [2]: significantly delayed | principal adverse event related to gemcitabine ([3]; human, 6 four-week cycles): grade 3/4 neutropenia | serious adverse events considered related to gemcitabine [3]: pulmonary infection and two episodes of fever
